Here are results for one molecule from patent publication US20150174186A1, “PHARMACEUTICAL COMPOSITION FOR PREVENTING OR TREATING STAT3-MEDIATED DISEASE, COMPRISING SALVIA PLEBEIA R. BR. EXTRACT OR FRACTION THEREOF AS ACTIVE INGREDIENT” (Korea Research Institute of Bioscience and Biotechnology, priority 2012, published 2015).

In test [1] the test system is mouse model with osteoporosis induced by ovariectomy. Kind of test: Mouse model with osteoporosis induced by ovariectomy (DEXA, micro CT). It is filed as in vivo, C57BL/6 mouse. As to conditions: compared to PBS after ovariectomy, oral, five weeks.
Description: Test groups were divided into a sham group (only surgery without ovary removal) and a group treated with ovariectomy (OVX). In the OVX group, the ovaries of an eight-week old female C57BL/6 mouse were removed by surgery and the mouse was bred for 6 weeks to induce osteoporosis. […] The sample was used after dissolving in PBS. Furthermore, the sham group was orally administered with PBS for five weeks.
Upon termination of five weeks' oral administration, the Bone Mineral Density (BMD) and Bone Mineral Content (BMC) of the mouse were measured using an osteoporosis analyzing device Dual-Energy X-ray Absorptiometry (DEXA; bone mineral density analyzer), and the results are shown in FIG. 21a-21d.
Upon termination of five weeks' oral administration, the mice of each experimental group were sacrificed, and the bones adjacent to tibia were separated. The bones were then photographed to obtain their 3-dimensional structures and cross-sections via micro CT, and the microstructures and volume of the bones and trabecular thickness were measured.
A further test deals with osteoclasts. In words: Differentiation and formation of osteoclasts from bone marrow macrophages (TRAP assay). It is filed as cell-based, ICR mouse. The settings on record: BMM cells. The text has this:
Osteoclasts are known to directly affect bone resorption, and the differentiation and formation of osteoclasts play a very important role in osteoporosis. In order to examine the effect of the ethanol extract of Salvia plebeia R. Br. on the differentiation and formation of osteoclasts, the differentiation from bone marrow cells isolated from the femur of an ICR mouse into osteoclasts was observed.
Bone marrow cells were separated from the femur of a three- to six-week old ICR mouse, and the separated cells were treated with M-CSF (30 ng/ml) for 3 days, thereby inducing their differentiation into bone marrow macrophage (BMM). Then, the BMM was treated with M-CSF (30 ng/ml) and RANKL (100 ng/ml) for 4 days, thereby inducing them to be differentiated into osteoclasts. […] Then, the differentiation and formation of osteoclasts were confirmed by TRAP assay.

The structures appear in SMILES notation.

For the molecule `NCCCC(O)(P(=O)(O)O)P(=O)(O)O` [alendronate], the “Bone Mineral Content (BMC)” value in test [1] is on record as “significant increase”. Moreover, the differentiation of osteoclasts entry in the test on osteoclasts (10 μM) is listed as “differentiation of osteoclasts was observed”. For the same molecule, in the test with osteoclasts (30 and 60 μM), the formation of osteoclasts result is recorded as “osteoclasts were not formed due to toxicity”.
